From paper PMC10223284, “Category-Based Toxicokinetic Evaluations of Data-Poor Per- and Polyfluoroalkyl Substances (PFAS) using Gas Chromatography Coupled with Mass Spectrometry” (Toxics, 2023)
Values joined by “and” are separate entries in the source; they are usually repeats but may differ in a detail not shown here. Identical values can stand only once. Like-named read-outs stand apart in the source and are kept apart here.

How the values were obtained:
[1] = Abiotic loss in negative controls of the hepatocyte clearance assay (cell-free media, metabolically inactivated hepatocytes); assay type: in vitro ADME
Procedure, shortened: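 Test compound at 1 μM incubated at 37 °C with shaking in complete William's medium E, either cell-free or with metabolically inactivated hepatocytes, then quenched with ice-cold acetonitrile for quantitative analysis.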

human plasma [2] = conditions: both, human, 5 h, 10 μM; for PPB_Stab_Fail: plasma
in vitro [3] = conditions: both, human, plasma
human plasma [4] = experiment: Ultracentrifugation (UC) plasma protein binding assay, fraction unbound in plasma (fup); conditions: for Fup.Med: median fraction unbound in plasma; for Fup.Med / Fup.point: UC assay Level4; for Fup.point: point estimate of fraction unbound in plasma
[5] = as above; conditions: both, human, plasma
human plasma [6] = experiment: Chemical stability in plasma over the UC assay time course (T5hr/T1hr); conditions: for Fstable.Med: median fraction stable in plasma, UC assay Level4
[7] = as above; conditions: both, human, plasma
human plasma [8] = conditions: both, human, 5 h, 10 μM
human primary cells = conditions: cited from earlier work
[9] = test system: pooled human cryopreserved primary hepatocyte suspensions; experiment: Hepatic metabolic stability (hepatocyte clearance) assay, substrate depletion; assay type: in vitro ADME
Procedure, shortened: (§1)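 Pooled 50-donor human cryopreserved hepatocytes (50,000 cells/100 μL) incubated with 1 μM compound at 37 °C with shaking. Parent loss quantified against internal standards over time to T240 in triplicate; T½ and Clint (μL/min/million cells) from ln concentration vs time, corrected for abiotic loss in cell-free and inactivated-hepatocyte controls.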

[10] = as above; assay type: in vitro ADME, human; conditions: both sexes, human
Procedure, shortened: as §1

[11] = In vitro-in vivo extrapolation (IVIVE) to Css and administered equivalent dose (AED); set-up: species or system human; conditions: for Clhep: IVIVE, hepatocyte Clint scaled to whole-liver clearance; for AED: administered equivalent dose from LOEC and Css; for Fub: fub=fup/(B:P), Fub set to 1 if needed; for CLint: scaled with HPGL 110 mill cells/g, Vl 1596 g
Procedure, shortened: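 Measured plasma protein binding (fup) and hepatocyte Clint served as IVIVE inputs to estimate human steady-state plasma concentration (Css). fup was converted to blood unbound fraction using blood:plasma partitioning, and Clint was scaled to whole-liver clearance (L/h). AEDs were derived by combining Css with published in vitro lowest-observed effective concentrations.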

in vitro [12] = conditions: both, human, plasma; remark: listed apart in the source
human plasma [13] = conditions: legacy PFAS included for comparison; cited from earlier work
[14] = test system: pooled human cryopreserved primary hepatocyte suspensions; conditions: legacy PFAS included for comparison; cited from earlier work
[15] = BioSeek lowest-observed effect concentration used for AED
[16] = minimum lowest-observed effect concentration, BioSeek platform
[17] = Assuming 1 mg/kg/day dose rate, BW 70 kg
[18] = human steady-state plasma concentration, assuming 1 mg/kg/day dosage

Q: For `FC(F)(F)C(F)(C(F)(F)F)C(F)(F)C(F)(F)CC1CO1` (stereo not drawn) [3-(Perfluoro-3-methylbutyl)-1,2-propenoxide], which Hep_Stab_Fail ([1]; both, human, 120 min, 1 μM) is on record?
A: The Hep_Stab_Fail was 1.

Q: And the PPB_Stab_Fail (human plasma [2])?
A: Its PPB_Stab_Fail is 1.

Q: What about the remaining at 5 h, 10 μM (in vitro [3]) of the same compound?
A: Its remaining at 5 h, 10 μM is 0%.

Q: Which Hep_Stab_Fail ([1]; flag for stability failure in hepatocyte clearance assay controls (1 or Fst = fail, 0 = pass)) does the source give for `NC(O)(C(F)(F)F)C(F)(F)F` [2-Aminohexafluoropropan-2-ol] here?
A: Its Hep_Stab_Fail is 1.

Q: And the fup (human plasma [4]; human plasma, 10 μM, ultracentrifugation, 37 °C)?
A: The fup was 1.

Q: What about the Fup.Med (human plasma [4]) of the same compound?
A: The Fup.Med was 0.867.

Q: What about the Fup.point (human plasma [4]) of the same compound?
A: Its Fup.point is 0.963.

Q: And the “Fraction Unbound (fu), replicates A, B, C” value (human plasma [4]; single replicate of one UC run (aqueous fraction / Time 5 hr))?
A: The value was 0.90 and 0.77 and 0.85.

Q: And the fraction unbound at 5 h, 10 μM ([5]; Fraction Unbound (fu), Run-specific Avg, average of one UC run (run date in line above))?
A: The fraction unbound at 5 h, 10 μM was 0.993.

Q: And the fraction unbound at 5 h, 10 μM ([5]; Fraction Unbound (fu), replicates A, B, C, single replicate of one UC run (aqueous fraction / Time 5 hr))?
A: The fraction unbound at 5 h, 10 μM was 1.

Q: And the “Stability (T5hr/ T1hr), Run-specific Avg” value (human plasma [6]; average of one UC run (run date in line above))?
A: The value was 0.77 and 0.751.

Q: What about the PPB_Stab_Fail (human plasma [6]; flag for stability failure in the plasma protein binding assay (1 = fail, 0 = pass)) of the same compound?
A: The PPB_Stab_Fail was 0.

Q: And the “Mean Stability” value (human plasma [6]; mean T5hr/T1hr ratio over all replicates and runs, plasma)?
A: Its value is 0.76.

Q: What about the Fstable.Med (human plasma [6]) of the same compound?
A: Its Fstable.Med is 0.225.

Q: What about the “Stability (T5hr/ T1hr), replicates A, B, C” value (human plasma [6]; single replicate of one UC run) of the same compound?
A: The value was 0.60 and 0.78 and 0.93 and 0.61 and 0.77 and 0.88.

Q: What about the remaining at 5 h, 10 μM [7] of the same compound?
A: Its remaining at 5 h, 10 μM is 76%.

Q: Which Fup.Med (human plasma [4]) does the source give for `Cc1ccc([N+](=O)[O-])cc1` [4-Nitrotoluene, 4-nitrotoluene, reference compound] here?
A: Its Fup.Med is 0.0679.

Q: And the Fup.point (human plasma [4])?
A: The Fup.point was 0.0612.

Q: And the “Fraction Unbound (fu), Run-specific Avg” value (human plasma [4]; run-specific average)?
A: Its value is 0.0534 and 0.08.

Q: What about the fraction unbound at 5 h, 10 μM ([5]; Fraction Unbound (fu), Run-specific Avg, run-specific average) of the same compound?
A: Its fraction unbound at 5 h, 10 μM is 0.06.

Q: What about the fraction unbound at 5 h, 10 μM ([5]; Mean Fu (fraction unbound), mean over all UC runs and replicates, human plasma) of the same compound?
A: The fraction unbound at 5 h, 10 μM was 0.0581.

Q: And the “Mean Stability (T5hr/T1hr)” value (human plasma [6]; mean over all UC runs and replicates, human plasma)?
A: Its value is 0.816.

Q: What about the Fstable.Med (human plasma [6]) of the same compound?
A: The Fstable.Med was 0.779.

Q: And the “Stability (T5hr/ T1hr), Run-specific Avg” value (human plasma [6]; run-specific average)?
A: The value was 0.82 and 0.84 and 0.81 and 0.78.

Q: For `OCC(F)(F)OC(F)(F)C(F)(F)OC(F)(F)C(F)(F)OC(F)(F)CO` [1H,1H,11H,11H-Perfluorotetraethylene glycol], which Fup.Med (human plasma [8]) is on record?
A: Its Fup.Med is 0.0115.

Q: What about the Fup.point (human plasma [8]) of the same compound?
A: Its Fup.point is 0.0127.

Q: And the LOEC (human primary cells; [15])?
A: The LOEC was 2.00 µM.

Q: And the LOEC (human primary cells; [16])?
A: Its LOEC is 2 µM.

Q: What about the “No Cells BkgdCl, Clearance” value ([1]; 1 μM) of the same compound?
A: The value was 4.374.

Q: And the half-life at 1 μM ([1]; both sexes, human, hepatocytes)?
A: The half-life at 1 μM was 4.08 h.

Q: What about the “HT BkgdCl, Clearance” value ([1]; both, human, 1 μM) of the same compound?
A: The value was 5.666.

Q: And the Hep_Stab_Fail ([1]; both, human, 120 min, 1 μM)?
A: The Hep_Stab_Fail was 0.

Q: And the half-life at 1 μM ([1]; buffer)?
A: The half-life at 1 μM was 5.28 h.

Q: And the “HT BkgdCl, Slope” value ([1]; heat treated hepatocytes control, 0 vs 240 min)?
A: The value was -0.002833.

Q: And the “No Cells BkgdCl, Slope” value ([1]; no cells control, 0 vs 240 min)?
A: The value was -0.002187.

Q: And the “Concentration (nM), Time 240 min” value ([9]; both, human, 240 min, 1 μM)?
A: The value was 88.3883 nM.

Q: And the “Linear Regression Results, Best-Fit Values, Slope” value ([9]; hepatocyte time course)?
A: Its value is -0.01215.

Q: And the half-life at 1 μM ([10]; hepatocytes)?
A: Its half-life at 1 μM is 0.951 h.

Q: And the hepatocyte CLint at 1 μM ([10]; hepatocytes, Bkgd-Sub Clearance (µL/min/106 hepatocytes))?
A: The hepatocyte CLint at 1 μM was 19.9 µL/min/1e6 cells.

Q: What about the hepatocyte CLint at 1 μM ([10]; hepatocytes, In Vitro Clint) of the same compound?
A: The hepatocyte CLint at 1 μM was 19.9 µL/min/1e6 cells.

Q: What about the hepatocyte CLint at 1 μM ([10]; hepatocytes, Linear Regression Results, Best-Fit Values, Clearance) of the same compound?
A: The hepatocyte CLint at 1 μM was 24.3 µL/min/1e6 cells.

Q: And the hepatocyte CLint at 1 μM ([10]; hepatocytes, Unadj Clint)?
A: Its hepatocyte CLint at 1 μM is 24.3 µL/min/1e6 cells.

Q: And the hepatocyte CLint at 1 μM ([10]; hepatocytes, Unadj in vitro Clint)?
A: Its hepatocyte CLint at 1 μM is 24.3 µL/min/1e6 cells.

Q: And the hepatocyte CLint at 1 μM ([10]; hepatocytes, clearance rate in hepatocytes)?
A: Its hepatocyte CLint at 1 μM is 20 µL/min/1e6 cells.

Q: What about the hepatocyte CLint at 1 μM ([10]; s9, Clint.1.Med) of the same compound?
A: Its hepatocyte CLint at 1 μM is 5.23 µL/min/1e6 cells.

Q: What about the Css [11, 17] of the same compound?
A: Its Css is 0.61 mg/L and 1.50 uM.

Q: And the Clhep [11]?
A: The Clhep was 4.634 L/h.

Q: And the AED [11]?
A: The AED was 1.3364 mg/kg/day.

Q: What about the Fub [11] of the same compound?
A: Its Fub is 0.02327.

Q: What about the Css [11, 18] of the same compound?
A: Its Css is 1.50 µM.

Q: What about the CLint [11] of the same compound?
A: Its CLint is 3498911 µL/min.

Q: And the Fstable.Med (human plasma [2])?
A: The Fstable.Med was 0.989.

Q: What about the “Mean Stability” value (human plasma [2]) of the same compound?
A: The value was 1.051.

Q: And the “Stability (T5hr/ T1hr), Run-specific Avg” value (human plasma [2])?
A: The value was 0.998.

Q: And the PPB_Stab_Fail (human plasma [2])?
A: The PPB_Stab_Fail was 0.

Q: What about the fraction unbound at 5 h, 10 μM (in vitro [12]; Fraction Unbound (fu), replicates A, B, C) of the same compound?
A: The fraction unbound at 5 h, 10 μM was 0.0147.

Q: What about the fraction unbound at 5 h, 10 μM (in vitro [12]; Mean Fu) of the same compound?
A: The fraction unbound at 5 h, 10 μM was 0.013.

Q: And the fraction unbound at 5 h, 10 μM (in vitro [12]; Mean fu)?
A: Its fraction unbound at 5 h, 10 μM is 0.0128.

Q: With `O=S(=O)([O-])C(F)(F)C(F)(F)C(F)(F)C(F)(F)C(F)(F)C(F)(F)C(F)(F)C(F)(F)F.[K+]` [Potassium perfluorooctanesulfonate, reference compound] as the compound, how does the fup (human plasma [13]) read?
A: Its fup is 0.0040.

Q: What about the LOEC (human primary cells; [15]) of the same compound?
A: Its LOEC is 7.00 µM.

Q: And the LOEC (human primary cells; [16])?
A: The LOEC was 7 µM.

Q: What about the Css [11, 17] of the same compound?
A: Its Css is 15.71 mg/L and 31.41 uM.

Q: And the Clhep [11]?
A: Its Clhep is 0.138 L/h.

Q: And the AED [11]?
A: The AED was 0.2229 mg/kg/day.

Q: And the Fub [11]?
A: The Fub was 0.007273.

Q: And the Css [11, 18]?
A: Its Css is 31.41 µM.

Q: What about the CLint [11] of the same compound?
A: The CLint was 317764 µL/min.

Q: What about the Mean fu (human plasma [4]; fraction unbound in human plasma, used for IVIVE) of the same compound?
A: Its Mean fu is 0.004.

Q: And the “In Vitro Clint” value [14]?
A: Its value is 1.81 μL/min/10^6 cells.
